Structures are written as SMILES.

The assay deals with ADP-induced aggregation of platelets in human PRP. Description: animal or person. Conditions: Platelet, po, read-out: ID50 (dose administered orally that inhibits by 50% the ADP-induced ex vivo aggregation of platelets in human PRP).
`CCOC(=O)NC(=N)c1ccc(C(=O)CCC(=O)N2CCC(OCC(=O)OC(C)C)CC2)cc1` [Example 80, isopropyl [1-[4-[4-(ethoxycarbonylamino-imino-methyl)-phenyl]-4-oxo-butyryl]-piperidin-4-yloxy]-acetate]: the ED50 was 0.7 mg/kg.
With `CCOC(=O)COc1ccc(C(=O)C(CSC)NC(=O)c2ccc(C(=N)NC(=O)OCC)cc2)cc1` (racemic) [Example 27, ethyl (R,S)-4-[2-[4-(ethoxycarbonylamino-imino-methyl)-benzoylamino]-3-methylsulphanyl-propionyl]-phenoxyacetate] the figure was 4.3 mg/kg; with `CC(C)OC(=O)COC1CCN(C(=O)[C@H](C)NC(=O)c2ccc(C(N)=NO)cc2)CC1` (mixture of isomers) [Example 76, isopropyl (E/Z)-(S)-1-[2-[4-(amino-hydroxyimino-methyl)-benzoylamino]-propionyl]-piperidin-4-yloxyacetate], 0.2 mg/kg.
With `COc1ccc(C[C@H](NC(=O)c2ccc(CN)cn2)C(=O)N2CCC(OCC(=O)OC(C)C)CC2)cc1` [Example 72, isopropyl (S)-1-[2-(5-aminomethyl-pyridin-2-ylcarbonylamino)-3-(4-methoxy-phenyl)-propionyl]-piperidin-4-yloxyacetate] the figure was 2.7 mg/kg; with `CCOC(=O)N=C(N)c1ccc(C(=O)N[C@@H](Cc2ccc(OC(=O)c3ccco3)cc2)C(=O)N2CCC(OCC(=O)OC(C)C)CC2)cc1` (mixture of isomers) [Example 51, (E/Z)-(S)-4-[2-[4-(amino-ethoxycarbonylimino-methyl)-benzoylamino]-3-(4-isopropoxy-carbonylmethoxy-piperidin-1-yl)-3-oxo-propyl]-phenyl furan-2-carboxylate], 3.9 mg/kg.
Turning to `C[C@H](NC(=O)c1ccc(C(=N)N)cn1)C(=O)N1CCC(OCC(=O)OC2CCOCC2)CC1` [Example 63, tetrahydropyran-4-yl (S)-1-[2-(5-amino-imino-methyl-pyridin-2-ylcarbonylamino)-propionyl]-piperidin-4-yloxy-acetate], the ED50 was 1.1 mg/kg.
With `CC(C)COC(=O)NC(=N)c1ccc(C(=O)CC(C)C(=O)N2CCC(OCC(=O)OC(C)C)CC2)cc1` (racemic) [Example 85, isopropyl (RS)-[1-[4-[4-(Isobutoxycarbonylamino-imino-methyl)-phenyl]-2-methyl-4-oxo-butyryl]-piperidin-4-yloxy]-acetate] the figure was 0.4 mg/kg.
With `CCOC(=O)COc1ccc(C(=O)C(C)NC(=O)c2ccc(C(N)=NO)cc2)cc1` (racemic) [Example 32, ethyl (Z)-(R,S)-4-[2-[4-[amino-hydroxyimino-methyl]-benzoylamino]-propionyl]-phenoxyacetate] the figure was 0.2 mg/kg.
For the compound `COCCOC(=O)COc1ccc(C(=O)[C@H](C)NC(=O)c2ccc(C(=N)NC(=O)OCCOC)cc2)cc1` [Example 40, 2-methoxy-ethyl (S)-^4-[2-[4-[imino-(2-methoxy-ethoxy-carbonylamino)-methyl]-benzoylamino]-propionyl]-phenoxyacetate], the ED50 turned out to be 0.6 mg/kg.
With `CCOC(=O)NC(=N)c1ccc(C(=O)N[C@@H](C)C(=O)c2ccc(OCC(=O)OC3CCOCC3)cc2)cc1` [Example 33, tetrahydropyran-4-yl (S)-4-[2-[4-(ethoxycarbonylamino-imino-methyl)-benzoylamino]-propionyl]-phenoxyacetate] the figure was 0.6 mg/kg.
As for `CCOC(=O)COc1ccc(C(=O)[C@H](C)NC(=O)c2ccc(/C(N)=N/O)cc2)cc1` [Example 41, ethyl (Z)-(S)-4-[2-[4-(amino-hydroxyimino-methyl)-benzoylamino]-propionyl]-phenoxyacetate], the ED50 was 0.2 mg/kg.
On to `CCOC(=O)COc1ccc(C(=O)[C@@H](NC(=O)c2ccc(C(=N)N)cc2)[C@@H](C)O)cc1` [Example 20, ethyl (2S,3R)-4-[2-[4-(amino-imino-methyl)-benzoylamino]-3-hydroxy-butyryl]-phenoxyacetate], for which the ED50 is 2.4 mg/kg.
Take `CCOC(=O)N=C(N)c1ccc(C(=O)N[C@@H](Cc2ccc(OC(=O)c3ccccc3N)cc2)C(=O)N2CCC(OCC(=O)OC(C)C)CC2)cc1` (mixture of isomers) [Example 50, (E/Z)-(S)-4-[2-[4-(amino-ethoxycarbonylimino-methyl)-benzoylamino]-3-(4-isopropoxy-carbonylmethoxy-piperidin-1-yl)-3-oxo-propyl]-phenyl 2-amino-benzoate]: the ED50 stood at 1.3 mg/kg.
Turning to `CCOC(=O)COc1ccc(C(=O)[C@H](C)NC(=O)c2ccc(C(=N)NC(=O)Oc3ccccc3)cc2)cc1` [Example 36, ethyl (S)-4-[2-[4-(imino-phenoxycarbonylamino-methyl)-benzoylamino]-propionyl]-phenoxyacetate], the ED50 is 0.5 mg/kg.
With `C[C@H](NC(=O)c1ccc(C(=N)N)cc1)C(=O)c1ccc(OCC(=O)OCC2CC2)cc1` [Example 3, cyclopropylmethyl (S)-4-[2-[4-(amino-imino-methyl)-benzoylamino]-propionyl]-phenoxyacetate] the figure was 2.7 mg/kg; with `C[C@H](NC(=O)c1ccc(C(=N)N)cc1)C(=O)c1ccc(OCC(=O)OC2CCCCC2)cc1` [Example 4, cyclohexyl (S)-4-[2-[4-(amino-imino-methyl)-benzoylamino]-propionyl]-phenoxyacetate], 2.1 mg/kg.
Regarding `CCOC(=O)N=C(N)c1ccc(C(=O)N[C@@H](Cc2ccc(OC(=O)OCC)cc2)C(=O)N2CCC(OCC(=O)OC(C)C)CC2)cc1` (mixture of isomers) [Example 49, Isopropyl (E/Z)-(S)-1-[2-[4-(amino-ethoxycarbonylimino-methyl)-benzoylamino]-3-(4-ethoxycarbonyloxy-phenyl)-propionyl]-piperidin-4-yloxyacetate], the ED50 was determined as 1.2 mg/kg.
Take `CCOC(=O)COc1ccc(C(=O)C(C)NC(=O)c2ccc(C(N)=NOC(=O)OCC)cc2)cc1` (racemic) [Example 35, ethyl (Z)-(R,S)-4-[2-[4-[amino-ethoxycarbonyloximino-methyl]-benzoylamino]-propionyl]-phenoxyacetate]: the ED50 was determined as 0.5 mg/kg.
With `COCCOC(=O)COc1ccc(C(=O)[C@H](C)NC(=O)c2ccc(C(=N)N)cc2)cc1` [Example 22, 2-methoxy-ethyl (S)-4-[2-[4-(amino-imino-methyl)-benzoylamino]-propionyl]-phenoxyacetate], the ED50 was 1.8 mg/kg.
On to `CCOC(=O)COc1ccc(C(=O)[C@H](C)NC(=O)c2ccc(C(=N)NC(=O)OCCOC)cc2)cc1` [Example 28, ethyl (S)-4-[2-[4-[imino-2-(methoxy-ethoxycarbonylamino)-methyl]-benzoylamino]-propionyl]-phenoxyacetate], for which the ED50 worked out at 0.3 mg/kg.
With `CCOC(=O)COc1ccc(C(=O)[C@H](CO)NC(=O)c2ccc(C(=N)N)cc2)cc1` [Example 9, ethyl (S)-4-[2-[4-(amino-imino-methyl)-benzoylamino]-3-hydroxy-propionyl]-phenoxyacetate] the figure was 1.4 mg/kg; with `CCOC(=O)COc1ccc(C(=O)[C@H](COC(C)=O)NC(=O)c2ccc(C(=N)N)cc2)cc1` [Example 24, ethyl (S)-4-[2-[4-(amino-imino-methyl)-benzoylamino]-3-acetoxy-propionyl]-phenoxy-acetate], 2.3 mg/kg; with `CCOC(=O)COc1ccc(C(=O)[C@H](C)NC(=O)COC2CCNCC2)cc1` [Example 29, ethyl (S)-4-(2-piperidin-4-yloxyacetylamino-propionyl)-phenoxyacetate], 1 mg/kg.
With `COc1ccc(C[C@H](NC(=O)c2ccc(C(=N)N)cc2)C(=O)c2ccc(OCC(=O)O)cc2)cc1` [Example 11, (S)-4-[2-[4-(amino-imino-methyl)-benzoylamino]-3-(4-methoxy-phenyl)-propionyl]-phenoxyacetic acid] the figure was 3.1 mg/kg; with `CCOC(=O)N=C(N)c1ccc(C(=O)N[C@@H](Cc2ccc(OC(=O)c3ccccc3OC(C)=O)cc2)C(=O)N2CCC(OCC(=O)OC(C)C)CC2)cc1` (mixture of isomers) [Example 53, (E/Z)-(S)-4-[2-[4-(amino-ethoxycarbonylimino-methyl)-benzoylamino]-3-(4-isopropoxy-carbonylmethoxy-piperidin-1-yl)-3-oxo-propyl]-phenyl 2-acetoxy-benzoate], 1.5 mg/kg.
With `CCOC(=O)COc1ccc(C(=O)[C@H](C)NC(=O)c2ccc(C(=N)NC(=O)OC3CCOCC3)cc2)cc1` [Example 38, ethyl (S)-4-[2-[4-[imino-(tetrahydro-pyran-4-yloxy-carbonylamino)-methyl]-benzoylamino]-propionyl]-phenoxyacetate] the figure was 2.9 mg/kg.
In the case of `CCOC(=O)N=C(N)c1ccc(C(=O)N[C@@H](C)C(=O)N2CCC(OCC(=O)OC(C)C)CC2)cc1` (mixture of isomers) [Example 60, isopropyl (E/Z)-(S)-1-[2-[4-(amino-ethoxycarbonylimino-methyl)-benzoylamino]-propionyl]-piperidin-4-yloxyacetate], the ED50 was found to be 0.3 mg/kg.

The values above are taken from patent publication US5973188A (priority 1993, dated 1999).
